# Experimental data as given in patent publication US9981950B2, “Triazoles as NR2B receptor inhibitors” (Janssen Pharmaceuticals, Inc., priority 2014, dated 2018).
# Experiments:
# rat NR1/NR2B receptor [1] = molecular target: T1, rat NR1/NR2B receptor (Rattus norvegicus (Rat), UniProt P35439+Q00960); experiment: RRNR2BB: inhibition of specific binding to the rat NR1/NR2B receptor; details: [3H]-Ifenprodil binding, rat brain membranes, Hill-plot 2-parameter-model
# In short: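 Washed membranes from male Wistar rat forebrain (whole brain minus cerebellum) in 5 mM Tris/1 mM EDTA pH 7.4 used in ifenprodil-site binding, 60 min at 4° C. Nonspecific binding defined with […] CP101.606; bound separated by filtration on PEI-soaked filters. IC50 from Hill plot, 2-parameter model.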
# rat NR1/NR2B receptor [2] = molecular target: T1, rat NR1/NR2B receptor; experiment: NR2B binding assay: inhibition of specific [3H]-Ifenprodil binding to the rat NR1/NR2B receptor; details: rat brain membranes, Hill-plot 2-parameter-model
# Experimental: Inhibition of Specific Binding to the Rat NR1/NR2B Receptor
# Male Wistar rats (180 to 200 g) were killed by suffocation in a CO2 chamber for two minutes. Whole brains without cerebellum were removed and dissected on ice, placed into closed vials and stored at −70° C.
# Membrane fractions were prepared and tested using standard techniques. At the time of the assay, 1 g of the brains was placed into 25 ml of 50 mM Tris/10 mM EDTA buffer, pH 7.1, (25 vol. per g of original tissue) and homogenized for 30 sec at 20000 rpm with an Ultraturrax T25 (Jahnke & Kunkel, IKA-Labortechnik, Staufen, Germany). The homogenate was centrifuged at 4° C. for 10 min at 48000 g (OPTIMA L-70, Beckman, Palo Alto, Calif. 94304, USA).
# The supernatant was discarded and the pellet was homogenized on ice for 30 sec at 20000 rpm with an Ultraturrax and again centrifuged at 48000 g for 30 minutes at 4° C. The resulted pellet was resuspended in 25 ml of 50 mM Tris/10 mM EDTA buffer, homogenized for 30 sec with an Ultraturrax, aliquoted, frozen at −70° C. and stored until use.
# After thawing on the day of the assay, a 5 ml membrane aliquot was centrifuged at 48000 g for 30 min at 4° C. The pellet was resuspended in 5 ml of 5 mM Tris/1 mM EDTA buffer, pH 7.4, homogenized for 30 sec at 20000 rpm with an Ultraturrax and centrifuged at 48000 g for 30 min at 4° C. This was repeated twice. The final pellet was homogenized in 5 ml of 5 mM Tris/l mM EDTA buffer at 4° C. with an Ultraturrax and used for the Ifenprodil-binding assay as described in the following.
# Nonspecific binding was estimated in the presence of […] CP101.606. The samples were incubated for 60 min. at 4° C.
# The incubation was terminated by filtration of the membrane preparations using Filtermat B (Pharmacia, Uppsala Sweden) and a Micro Cell Harvester (Skatron, Lier, Norway). The Filtermat B had been presoaked with 1% polyethylene imine and carefully washed with 50 mM Tris/HCl-buffer pH 7.7 after the filtration to separate free and bound radioactivity.
# The optimal amount of membrane preparation in the assay had been determined and optimized for each membrane preparation separately before the test.
# For pipetting of the incubation mixture we routinely used the robot Biomek2000 (Fa. Beckman).
# For determination of IC50 values the Hill-plot, 2-parameter-model was used.
# hERG-receptor = hERG-receptor (Homo sapiens (Human), UniProt Q12809); experiment: HERGBD: inhibition of specific 3H-Dofetilide binding to the hERG-receptor; details: HEK cell membranes with human ERG, Hill-plot 2-parameter-model
# Sequence of hERG-receptor (Q12809 whole entry): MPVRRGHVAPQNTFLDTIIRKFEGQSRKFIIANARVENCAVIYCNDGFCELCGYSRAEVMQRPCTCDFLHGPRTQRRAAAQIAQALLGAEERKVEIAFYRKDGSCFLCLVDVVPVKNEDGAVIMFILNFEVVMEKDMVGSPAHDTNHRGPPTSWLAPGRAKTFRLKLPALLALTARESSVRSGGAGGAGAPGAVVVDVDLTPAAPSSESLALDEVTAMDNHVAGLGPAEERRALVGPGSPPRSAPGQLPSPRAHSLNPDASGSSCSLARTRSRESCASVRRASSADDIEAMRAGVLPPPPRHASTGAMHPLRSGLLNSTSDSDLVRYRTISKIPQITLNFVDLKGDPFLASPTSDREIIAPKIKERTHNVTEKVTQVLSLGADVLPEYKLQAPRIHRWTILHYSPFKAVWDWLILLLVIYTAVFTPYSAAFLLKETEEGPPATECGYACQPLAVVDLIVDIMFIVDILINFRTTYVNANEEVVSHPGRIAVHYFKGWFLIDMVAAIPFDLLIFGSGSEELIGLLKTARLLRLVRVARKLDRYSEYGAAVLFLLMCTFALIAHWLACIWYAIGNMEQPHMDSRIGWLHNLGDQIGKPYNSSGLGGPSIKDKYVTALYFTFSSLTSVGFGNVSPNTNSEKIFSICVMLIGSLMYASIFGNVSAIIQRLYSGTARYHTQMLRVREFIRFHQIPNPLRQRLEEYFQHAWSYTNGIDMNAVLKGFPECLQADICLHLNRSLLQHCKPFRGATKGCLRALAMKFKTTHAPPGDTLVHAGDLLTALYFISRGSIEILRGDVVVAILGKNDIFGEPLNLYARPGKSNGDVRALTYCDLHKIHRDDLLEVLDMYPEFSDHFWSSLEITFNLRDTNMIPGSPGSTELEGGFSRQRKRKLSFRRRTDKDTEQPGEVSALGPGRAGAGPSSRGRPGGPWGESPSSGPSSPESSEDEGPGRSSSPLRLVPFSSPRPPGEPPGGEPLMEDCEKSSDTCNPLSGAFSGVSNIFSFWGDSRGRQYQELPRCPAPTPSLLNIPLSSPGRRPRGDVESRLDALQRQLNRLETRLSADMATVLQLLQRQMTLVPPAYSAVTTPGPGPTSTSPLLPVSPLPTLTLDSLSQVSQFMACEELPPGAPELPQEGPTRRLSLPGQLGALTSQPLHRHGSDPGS
# In short: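 Membranes from HEK cells stably expressing human ERG incubated 90 min at RT with 1.5 nmol/l 3H-dofetilide in 20 mM HEPES/0.1 mM KCl pH 7.2, inhibitor in 1% DMSO. Nonspecific binding with […] dofetilide; bound ligand separated by filtration and scintillation counted.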
# T1 sequence (Q00960 27-1482, other chains not shown): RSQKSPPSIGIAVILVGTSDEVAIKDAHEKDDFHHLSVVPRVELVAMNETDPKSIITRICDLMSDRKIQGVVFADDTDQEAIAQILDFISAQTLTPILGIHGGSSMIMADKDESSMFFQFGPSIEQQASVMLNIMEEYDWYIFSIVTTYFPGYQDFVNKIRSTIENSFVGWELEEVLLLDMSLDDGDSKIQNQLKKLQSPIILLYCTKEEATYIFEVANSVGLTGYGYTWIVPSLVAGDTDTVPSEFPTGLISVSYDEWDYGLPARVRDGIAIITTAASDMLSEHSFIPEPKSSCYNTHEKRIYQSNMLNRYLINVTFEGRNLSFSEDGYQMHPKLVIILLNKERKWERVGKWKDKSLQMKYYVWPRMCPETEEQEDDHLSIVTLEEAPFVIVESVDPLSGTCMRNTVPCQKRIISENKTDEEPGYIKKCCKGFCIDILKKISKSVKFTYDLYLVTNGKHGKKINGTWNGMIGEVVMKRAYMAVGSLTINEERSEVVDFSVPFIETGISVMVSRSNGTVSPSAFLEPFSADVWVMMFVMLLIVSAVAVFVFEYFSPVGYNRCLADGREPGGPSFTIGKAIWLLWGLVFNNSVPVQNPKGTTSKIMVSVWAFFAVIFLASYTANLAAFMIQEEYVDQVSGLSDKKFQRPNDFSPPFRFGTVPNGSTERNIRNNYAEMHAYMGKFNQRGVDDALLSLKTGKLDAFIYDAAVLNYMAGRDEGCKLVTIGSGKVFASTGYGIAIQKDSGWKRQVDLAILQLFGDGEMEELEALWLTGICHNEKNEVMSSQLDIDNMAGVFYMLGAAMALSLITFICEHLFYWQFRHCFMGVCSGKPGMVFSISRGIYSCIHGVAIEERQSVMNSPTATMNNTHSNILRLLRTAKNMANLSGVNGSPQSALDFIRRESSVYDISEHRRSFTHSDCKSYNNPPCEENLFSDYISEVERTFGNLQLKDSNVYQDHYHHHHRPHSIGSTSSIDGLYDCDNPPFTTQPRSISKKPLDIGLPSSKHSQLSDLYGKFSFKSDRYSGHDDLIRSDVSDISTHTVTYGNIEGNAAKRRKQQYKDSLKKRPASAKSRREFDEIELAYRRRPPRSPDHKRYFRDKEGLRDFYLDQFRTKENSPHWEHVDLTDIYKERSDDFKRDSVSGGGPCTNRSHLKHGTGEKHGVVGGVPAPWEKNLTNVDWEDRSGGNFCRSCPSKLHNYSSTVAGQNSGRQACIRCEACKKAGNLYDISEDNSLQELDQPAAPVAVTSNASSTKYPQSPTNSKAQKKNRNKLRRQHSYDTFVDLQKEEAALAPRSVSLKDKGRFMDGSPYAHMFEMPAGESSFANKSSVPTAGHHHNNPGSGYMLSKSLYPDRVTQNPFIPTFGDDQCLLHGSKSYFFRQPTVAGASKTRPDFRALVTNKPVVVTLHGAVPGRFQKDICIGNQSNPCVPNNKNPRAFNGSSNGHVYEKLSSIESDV
Structure (SMILES),IC50 (rat NR1/NR2B receptor [1]) [nM],IC50 (rat NR1/NR2B receptor [2]) [nM],IC50 (hERG-receptor) [µM]
"Cc1cc(-n2cc(Cn3ccnc3C(C)C)nn2)ccc1Cl [Example 71, 1-(4-Chloro-3-methyl-phenyl)-4-(2-isopropyl-imidazol-1-ylmethyl)-1H-[1,2,3]triazole]",4.47,4.47,10
"Cc1cc(-n2cc(Cn3ccnc3CCO)nn2)ccc1Cl [Example 74, 1-(4-Chloro-3-methyl-phenyl)-4-[2-(2-hydroxy-ethyl)-imidazol-1-ylmethyl]-1H-[1,2,3]triazole]",6.9,6.9,33.8
"Cc1cc(-n2cc(Cn3ccnc3CCF)nn2)ccc1Cl [Example 75, 1-(4-Chloro-3-methyl-phenyl)-4-[2-(2-fluoro-ethyl)-imidazol-1-ylmethyl]-1H-[1,2,3]triazole]",13.5,13.5,32.8
"Cc1nccn1Cc1cn(-c2cccc(C3CC3)c2)nn1 [Example 76, 1-(3-Cyclopropyl-phenyl)-4-(2-methyl-imidazol-1-ylmethyl)-1H-[1,2,3]triazole]",15.9,15.9,10.3
"Cc1nccn1Cc1cn(-c2cccc(S(C)(=O)=O)c2)nn1 [Example 77, 1-(3-Methanesulfonyl-phenyl)-4-(2-methyl-imidazol-1-ylmethyl)-1H-[1,2,3]triazole]",615,615,150
"CS(=O)(=O)c1cccc(-n2cc(Cn3ccnc3CCF)nn2)c1 [Example 80, 4-[2-(2-Fluoro-ethyl)-imidazol-1-ylmethyl]-1-(3-methanesulfonyl-phenyl)-1H-[1,2,3]triazole]",2680,2680,> 100
"CCc1nccn1Cc1cn(-c2ccc(F)c(C(F)F)c2)nn1 [Example 83, 1-(3-Difluoromethyl-4-fluoro-phenyl)-4-(2-ethyl-imidazol-1-ylmethyl)-1H-[1,2,3]triazole]",4.11,4.11,16.7
"CC(C)(C)c1nccn1Cc1cn(-c2ccc(F)c(C(F)F)c2)nn1 [Example 87, 1-(3-Difluoromethyl-4-fluoro-phenyl)-4-(2-tert.butyl-imidazol-1-ylmethyl)-1H-[1,2,3]triazole]",131,131,7.52
"OCCc1nccn1Cc1cn(-c2ccc(F)c(C(F)F)c2)nn1 [Example 88, 1-(3-Difluoromethyl-4-fluoro-phenyl)-4-[2-(2-hydroxy-ethyl)-imidazol-1-ylmethyl]-1H-[1,2,3]triazole]",14.5,14.5,93.4
"Cc1nccn1Cc1cn(-c2ccc(Cl)c(C(F)F)c2)nn1 [Example 89, 1-(4-Chloro-3-difluoromethyl-phenyl)-4-(2-methyl-imidazol-1-ylmethyl)-1H-[1,2,3]triazole]",3.37,3.37,8.52
"FC(F)c1cc(-n2cc(Cn3ccnc3C3CC3)nn2)ccc1Cl [Example 90, 1-(4-Chloro-3-difluoromethyl-phenyl)-4-(2-cyclopropyl-imidazol-1-ylmethyl)-1H-[1,2,3]triazole]",15.4,15.4,5.35
"CCc1nccn1Cc1cn(-c2ccc(Cl)c(C(F)F)c2)nn1 [Example 91, 1-(4-Chloro-3-difluoromethyl-phenyl)-4-(2-ethyl-imidazol-1-ylmethyl)-1H-[1,2,3]triazole]",2.43,2.43,7.19
"CC(C)c1nccn1Cc1cn(-c2ccc(Cl)c(C(F)F)c2)nn1 [Example 92, 1-(4-Chloro-3-difluoromethyl-phenyl)-4-(2-isopropyl-imidazol-1-ylmethyl)-1H-[1,2,3]triazole]",5.24,5.24,11.3
"FC(F)Oc1cc(-n2cc(Cn3ccnc3C3CC3)nn2)ccc1Cl [Example 94, 1-(4-Chloro-3-difluoromethoxy-phenyl)-4-(2-cyclopropyl-imidazol-1-ylmethyl)-1H-[1,2,3]triazole]",3.91,3.91,3.02
"CC(C)(C)c1nccn1Cc1cn(-c2ccc(Cl)c(OC(F)F)c2)nn1 [Example 95, 4-(2-tert-Butyl-imidazol-1-ylmethyl)-1-(4-chloro-3-difluoromethoxy-phenyl)-1H-[1,2,3]triazole]",72.9,72.9,5.84
"CCc1nccn1Cc1cn(-c2ccc(Cl)c(OC(F)F)c2)nn1 [Example 96, 1-(4-Chloro-3-difluoromethoxy-phenyl)-4-(2-ethyl-imidazol-1-ylmethyl)-1H-[1,2,3]triazole]",1.6,1.6,4.41
"FCCc1nccn1Cc1cn(-c2ccc(Cl)c(OC(F)F)c2)nn1 [Example 99, 1-(4-Chloro-3-difluoromethoxy-phenyl)-4-[2-(2-fluoro-ethyl)-imidazol-1-ylmethyl]-1H-[1,2,3]triazole]",6.02,6.02,23.8
"Cc1nccn1Cc1cn(-c2ccc(F)c(OC(F)F)c2)nn1 [Example 100, 1-(3-Difluoromethoxy-4-fluoro-phenyl)-4-(2-methyl-imidazol-1-ylmethyl)-1H-[1,2,3]triazole]",1.9,1.9,12.8
Cc1nccn1Cc1cn(-c2cc(F)cc(C(F)F)c2)nn1 [Example 102],25.9,25.9,16.8
"Cc1nccn1Cc1cn(-c2ccc(F)c(C(C)(F)F)c2)nn1 [Example 105, 1-[3-(1,1-Difluoro-ethyl)-4-fluoro-phenyl]-4-(2-methyl-imidazol-1-ylmethyl)-1H-[1,2,3]triazole]",4.05,4.05,73.1
"Cc1nc2ccccc2n1Cc1cn(-c2ccc(Cl)c(Cl)c2)nn1 [Example 117, 1-[[1-(3,4-dichlorophenyl)triazol-4-yl]methyl]-2-methyl-benzimidazole]",141,141,3.09
"OCCc1nccn1Cn1cc(-c2ccc(S(F)(F)(F)(F)F)cc2)nn1 [Example 118, 2-(1-((1-(4-(pentafluoro-l6-sulfanyl)phenyl)-1H-1,2,3-triazol-4-yl)methyl)-1H-imidazol-2-yl)ethan-1-ol]",263,263,12.3
